Experimental data from patent US8431525B2, “Coelenteramide analogs” (JNC Corporation, priority 2009, dated 2013).

Assays:
[1] = Fluorescence spectrum and fluorescence quantum yield of CTMD analogs at 750 nM (Example 1); type: physicochemical; conditions: for Fluorescence quantum yield (PB) / λmax (PB)/nm: 67 mM phosphate buffer pH 7.4, 750 nM; for Fluorescence quantum yield (PB) / λmax (PB)/nm / λmax (MeOH)/nm / Fluorescence quantum yield (MeOH): 25° C., excited at 330 nm; for Fluorescence quantum yield (PB) / Fluorescence quantum yield (MeOH): relative to quinine sulfate 0.55; for λmax (PB)/nm / λmax (MeOH)/nm: fluorescence emission; for λmax (MeOH)/nm / Fluorescence quantum yield (MeOH): methanol, 750 nM; for fluorescence properties compared with known CTMD (c-4) or h-CTMD (c-13): from TABLE 1
Description: The fluorescence quantum yield of each CTMD analog synthesized was determined by the following procedure. The fluorescence spectrum was measured at 25° C. using a spectrofluorometer FP-6500 of JASCO (JASCO Corp., Tokyo). Specifically, the CTMD analog was dissolved in methanol (MeOH) or in 67 mM phosphate buffer (PB) (pH 7.4) at a final concentration of 750 nM using a quartz cell (light path length of 10 mm). Measurement was performed 3 times at the excited wavelength of 330 nm, emission/excitation band width of 3 nm, response of 0.5 second and scanning rate of 100 nm/min. The average was taken as the fluorescence spectrum of the compound. The fluorescence quantum yield was determined after the spectrum was corrected.
Quinine sulfate was used as a standard for determining the fluorescence quantum yield. After quinine sulfate (Wako Pure Chemical Industries) was dissolved in 0.1N sulfuric acid aqueous solution, measurement was performed at the excitation light of 366 nm under the conditions for fluorescence measurements described above. The relative fluorescence quantum yield (fluorescence intensity) of the compound was calculated relative to the quantum yield of quinine sulfate as being 0.55.

Compound	Fluorescence quantum yield (PB) [1]	λmax (PB)/nm [1] [nm]	λmax (MeOH)/nm [1] [nm]	fluorescence properties compared with known CTMD (c-4) or h-CTMD (c-13) [1]	Fluorescence quantum yield (MeOH) [1]	melting point
CC(=O)Oc1ccc(-c2cnc(N)c(Cc3ccccc3)n2)cc1 [c-19, 5-(4-Acetoxyphenyl)-2-amino-3-benzylpyrazine]						183.5 to 185.5 °C
CC(=O)Nc1ncc(-c2ccc(OC(C)=O)cc2)nc1Cc1ccccc1 [c-33, 5-(4-Acetoxyphenyl)-2-acetylamino-3-benzylpyrazine]	0.154	384	375		0.085	215.5 to 217 °C (dec.)
CC(=O)Oc1ccc(CC(=O)Nc2ncc(-c3ccc(OC(C)=O)cc3)nc2Cc2ccccc2)cc1 [c-29, 5-(4-Acetoxyphenyl)-2-(4-acetoxyphenyl)acetylamino-3-benzylpyrazine]	0.029	386.5	376.5		0.086	225 to 227 °C
CC(=O)Oc1ccc(-c2cnc(N(S(C)(=O)=O)S(C)(=O)=O)c(Cc3ccccc3)n2)cc1 [c-39, 5-(4-Acetoxyphenyl)-3-benzyl-2-bis(methanesulfonyl)aminopyrazine]	0.096	419	381.5	different fluorescence properties	0.079	165.5 to 167 °C
CC(=O)Oc1ccc(-c2cnc(NC(=O)Cc3ccccc3)c(Cc3ccccc3)n2)cc1 [c-30, 5-(4-Acetoxyphenyl)-3-benzyl-2-(phenylacetylamino)pyrazine]	0.040	391	373.5		0.008	228 to 231 °C
CC(=O)Oc1ccc(-c2cnc(N(S(=O)(=O)Cc3ccc(I)cc3)S(=O)(=O)Cc3ccc(I)cc3)c(Cc3ccccc3)n2)cc1 [c-46, 5-(4-Acetoxyphenyl)-3-benzyl-2-bis(4-iodobenzylsulfonyl)aminopyrazine]						166 to 167 °C
CC(=O)Oc1ccc(-c2cnc(N(S(=O)(=O)Cc3ccccc3)S(=O)(=O)Cc3ccccc3)c(Cc3ccccc3)n2)cc1 [c-20, 5-(4-Acetoxyphenyl)-3-benzyl-2-bis(benzylsulfonyl)aminopyrazine]	0.026	420	399.5	different fluorescence properties	0.185	84 to 86.5 °C
CC(=O)Oc1ccc(-c2cnc(N(S(=O)(=O)c3ccc([N+](=O)[O-])cc3)S(=O)(=O)c3ccc([N+](=O)[O-])cc3)c(Cc3ccccc3)n2)cc1 [c-40, 5-(4-Acetoxyphenyl)-3-benzyl-2-bis(4-nitrophenylsulfonyl)aminopyrazine]	0.021	415	407.5	different fluorescence properties	0.004	227 to 229.5 °C (dec.)
CC(=O)Oc1ccc(-c2cnc(NS(=O)(=O)Cc3ccccc3)c(Cc3ccccc3)n2)cc1 [c-32, 5-(4-Acetoxyphenyl)-3-benzyl-2-(benzylsulfonylamino)pyrazine]	0.239	420	404	different fluorescence properties	0.234	240 to 241 °C

The next lines start with results.

Fluorescence quantum yield (PB) [1]	λmax (PB)/nm [1] [nm]	λmax (MeOH)/nm [1] [nm]	fluorescence properties compared with known CTMD (c-4) or h-CTMD (c-13) [1]	Fluorescence quantum yield (MeOH) [1]	Compound	melting point
0.147	429	416.5	different fluorescence properties	0.293	COc1ccc(-c2cnc(NS(=O)(=O)Cc3ccccc3)c(Cc3ccccc3)n2)cc1 [c-18, 3-Benzyl-2-benzylsulfonylamino-5-(4-methoxyphenyl)pyrazine]	213 to 215 °C
0.227	419.5	402.5	different fluorescence properties	0.196	O=S(=O)(Cc1ccccc1)Nc1ncc(-c2ccccc2)nc1Cc1ccccc1 [c-37, 3-Benzyl-2-benzylsulfonylamino-5-phenylpyrazine]	207 to 208.5 °C
0.059	421.5	417	different fluorescence properties	0.303	COc1ccc(-c2cnc(N(S(=O)(=O)Cc3ccccc3)S(=O)(=O)Cc3ccccc3)c(Cc3ccccc3)n2)cc1 [c-21, 3-Benzyl-2-bis(benzylsulfonyl)amino-5-(4-methoxyphenyl)pyrazine]	78 to 80 °C
0.199	450.5	415.5		0.345	COc1ccc(-c2cnc(NC(C)=O)c(Cc3ccccc3)n2)cc1 [c-24, 2-Acetylamino-3-benzyl-5-(4-methoxyphenyl)pyrazine]	
0.003	445	417.5	different fluorescence properties	0.003	COc1ccc(-c2cnc(NC(=S)Cc3ccccc3)c(Cc3ccccc3)n2)cc1 [c-17, 3-Benzyl-5-(4-methoxyphenyl)-2-(phenylthioacetylamino)pyrazine]	45 to 47 °C
0.107	435	430.5	different fluorescence properties	0.069	Cc1ccc(S(=O)(=O)Nc2ncc(-c3ccc(O)cc3)nc2Cc2ccccc2)cc1 [c-35, 3-Benzyl-5-(4-hydroxyphenyl)-2-[(4-methylphenyl)sulfonylamino]pyrazine]	181 to 182.5 °C
0.181	450	415		0.342	COc1ccc(-c2cnc(NC(=O)Cc3ccccc3)c(Cc3ccccc3)n2)cc1 [c-16, 3-Benzyl-5-(4-methoxyphenyl)-2-(phenylacetylamino)pyrazine]	197.5 to 202 °C
0.003	399	424.5		0.010	O=C(Cc1ccccc1)Nc1ncc(-c2ccc(O)cc2)nc1Cc1ccccc1 [c-13, 3-Benzyl-5-(4-hydroxyphenyl)-2-(phenylacetylamino)pyrazine]	259 to 261 °C
0.096	437	429	different fluorescence properties	0.056	CS(=O)(=O)Nc1ncc(-c2ccc(O)cc2)nc1Cc1ccccc1 [c-34, 3-Benzyl-5-(4-hydroxyphenyl)-2-(methanesulfonylamino)pyrazine]	
0.137	435.5	429.5	different fluorescence properties	0.066	O=S(=O)(Cc1ccccc1)Nc1ncc(-c2ccc(O)cc2)nc1Cc1ccccc1 [c-15, 3-Benzyl-2-benzylsulfonylamino-5-(4-hydroxyphenyl)pyrazine]	144 to 147 °C (dec.)
0.011	420.5	398.5	different fluorescence properties	0.180	O=S(=O)(Cc1ccccc1)N(c1ncc(-c2ccccc2)nc1Cc1ccccc1)S(=O)(=O)Cc1ccccc1 [c-42, 3-Benzyl-2-bis(benzylsulfonyl)amino-5-phenylpyrazine]	71.5 to 74.5 °C
